Assay results from patent US6441023B1 (American Home Products Corporation, priority 1997, dated 2002).
Structures can show the parent of a compound that is named as a salt.

Experiments:
MMP 1 = target: T1, MMP 1 (Homo sapiens, UniProt P03956); experiment: In vitro collagenase assay (human recombinant fibroblast collagenase); assay type: biochemical; details: read-out: MMP 1 IC 50
T1 construct: human recombinant fibroblast collagenase (truncated, mw=18,828, WAR, Radnor)
T1 sequence (P03956 100-269 limits assumed): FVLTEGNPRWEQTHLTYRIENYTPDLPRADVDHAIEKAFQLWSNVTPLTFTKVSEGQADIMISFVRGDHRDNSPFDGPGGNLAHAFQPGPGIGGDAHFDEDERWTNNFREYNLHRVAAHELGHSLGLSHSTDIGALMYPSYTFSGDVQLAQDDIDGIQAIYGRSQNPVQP
Experimental: The assay is based on the cleavage of a peptide substrate ((Dnp-Pro-Cha-Gly-Cys(iNe)-His-Ala-Lys(NMa)-NH2), Peptide International, Inc.) by collag,enase releasing the fluorescent NMa group which is quantitated on the fluorometer. Dnp quenches the NiIa fluorescence in the intact substrate. […] Substrate is dissolved in methanol and stored frozen in 1 mM aliquots. Collagenase is stored frozen in buffer in 25 µM aliquots. For the assay, substrate is dissolved in HCBC buffer to a final concentration of 10 μM and collagenase to a final concentration of 5 nM. Compounds are dissolved in methanol, DMSO, or HCBC. The methanol and DMSO are diluted in HCBC to <1.0%. Compounds are added to the 96 well plate containing enzyme and the reaction is started by the addition of substrate.
The slope of the line is calculated and represents the reaction rate.
The mean (x±sem) of the control rate is calculated and compared for statistical significance (p<0.05) with drug-treated rates using Dunnett's multiple comparison test.

MMP 9 = target: T2, MMP 9 (Homo sapiens, UniProt P14780); experiment: In vitro gelatinase assay (human neutrophil gelatinase B); assay type: biochemical; details: read-out: MMP 9 IC 50
T2 construct: from tissue; host or cells: human neutrophils
Experimental: The assay is based on the cleavage of the thiopeptide substrate ((Ac-Pro-Leu-Gly(2 mercapto-4 methyl-pentanoyl)-Leu-Gly-OEt), Bachem Bioscience) by the enzyme, gelatinase, releasing the substrate product which reacts calorimetrically with DTNB ((5,5′-dithio-bis(2-nitro-benzoic acid)). The enzyme activity is measured by the rate of the color increase.
The thiopeptide substrate is made up fresh as a 20 mM stock in 100% DMSO and the DTNB is dissolved in 100% DMSO as a 100 mM stock and stored in dark at room temperature. Both the substrate and DTNB are diluted together to 1 mM with substrate buffer (50 mM HEPES pH 7.5, 5 mM CaCl2) before use. The stock of human neutrophil gelatinase B is diluted with assay buffer (50 mnM HEPES pH 7.5, 5 mM CaCl2, 0.02% Brij) to a final concentration of 0.15 mnM.
The increase in OD405 is plotted and the slope of the line is calculated which represents the reaction rate.

MMP 13 = MMP 13 (Homo sapiens, UniProt P45452); experiment: MMP 13 inhibition (manual); assay type: biochemical; details: read-out: MMP 13 IC 50
TACE = target: T3, TACE (Homo sapiens, UniProt P78536); experiment: Procedure for measuring TACE inhibition; assay type: biochemical; details: for IC50: read-out: TACE IC 50; for inhibition at 10 µM: read-out: TACE % inhibition at 10 micromolar (*)
T3 construct: purchased Immunex
Experimental: Using 96-well black microtiter plates, each well receives a solution composed of 10 μL TACE (Inmunex, final concentration 1 μg/mL), 70 μL Tris buffer, pH 7.4 containing 10% glycerol (final concentration 10 mM), and 10 μL of test compound solution in DMSO ([…], DMSO concentration <1%) and incubated for 10 minutes at room temperature. The reaction is initiated by addition of a fluorescent peptidyl substrate (final concentration 100 μM to each well and then shaking on a shaker for 5 sec.
The reaction is read (excitation 340 nm, emission 420 nm) for 10 min. and the increase in fluorescence over time is plotted as a linear line. The slope of the line is calculated and represents the reaction rate.
The mean (xtsem) of the control rate is calculated and compared for statistical significance (p<0.05) with drug-treated rates using Dunnett's multiple comparison test.

T2 sequence (P14780 94-707): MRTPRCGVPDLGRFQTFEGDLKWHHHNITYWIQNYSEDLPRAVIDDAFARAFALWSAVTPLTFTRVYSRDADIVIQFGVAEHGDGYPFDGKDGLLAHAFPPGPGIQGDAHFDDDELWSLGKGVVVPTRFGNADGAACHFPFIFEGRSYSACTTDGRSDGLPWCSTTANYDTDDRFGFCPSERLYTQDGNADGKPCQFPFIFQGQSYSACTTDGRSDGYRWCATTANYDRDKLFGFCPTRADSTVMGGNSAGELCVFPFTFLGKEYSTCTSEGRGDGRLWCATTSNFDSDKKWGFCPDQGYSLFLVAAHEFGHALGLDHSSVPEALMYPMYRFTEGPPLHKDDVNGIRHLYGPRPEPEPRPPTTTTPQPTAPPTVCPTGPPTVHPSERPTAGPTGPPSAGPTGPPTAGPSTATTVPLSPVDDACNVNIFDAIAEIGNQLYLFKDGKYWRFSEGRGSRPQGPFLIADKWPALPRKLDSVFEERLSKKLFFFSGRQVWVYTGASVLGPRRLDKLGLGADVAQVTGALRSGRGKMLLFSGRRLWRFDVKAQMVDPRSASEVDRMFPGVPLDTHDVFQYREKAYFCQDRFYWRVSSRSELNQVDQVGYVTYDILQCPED
T3 sequence (P78536 215-824): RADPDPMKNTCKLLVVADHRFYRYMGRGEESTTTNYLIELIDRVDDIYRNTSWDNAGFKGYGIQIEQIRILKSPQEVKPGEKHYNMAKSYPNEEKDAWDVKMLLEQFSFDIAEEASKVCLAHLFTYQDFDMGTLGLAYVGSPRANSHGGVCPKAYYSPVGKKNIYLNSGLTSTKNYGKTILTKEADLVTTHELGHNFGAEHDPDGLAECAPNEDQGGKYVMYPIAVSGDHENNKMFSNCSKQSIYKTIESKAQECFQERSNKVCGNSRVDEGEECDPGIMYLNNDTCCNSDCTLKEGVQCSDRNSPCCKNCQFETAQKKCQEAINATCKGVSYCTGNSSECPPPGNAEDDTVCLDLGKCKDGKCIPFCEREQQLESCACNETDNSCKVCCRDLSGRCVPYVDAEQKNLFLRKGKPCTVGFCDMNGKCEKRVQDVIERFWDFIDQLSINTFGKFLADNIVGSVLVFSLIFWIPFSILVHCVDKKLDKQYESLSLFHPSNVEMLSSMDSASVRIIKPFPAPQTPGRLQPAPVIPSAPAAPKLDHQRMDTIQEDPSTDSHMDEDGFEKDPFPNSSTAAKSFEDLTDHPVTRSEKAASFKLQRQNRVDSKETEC

| Structure (SMILES) | melting point [°C] | IC50 (MMP 1) [µM] | IC50 (MMP 9) [µM] | IC50 (MMP 13) [µM] | IC50 (TACE) [µM] | inhibition at 10 µM (TACE) [%] |
| --- | --- | --- | --- | --- | --- | --- |
| CCCCOc1ccc(S(=O)(=O)C2(C(=O)NO)CCN(Cc3ccc(OCCN4CCCCC4)cc3)CC2)cc1 (as salt: HCl) [Example 242, 4-(4-Butoxy-benzenesulfonyl)-1-[4-(2-piperidin-1-yl-ethoxy)-benzyl]-piperidine-4-carboxylic acid hydroxyamide] | 155 |  |  |  |  |  |
| CCCCCC(C(=O)NO)[S+]([O-])c1ccc(OC)cc1 (single isomer, unassigned) [Example 81b, 2S*-(4-methoxy-phenyl-R*-sulfinyl)-heptanoic acid hydroxyamide] |  | 3.76 | 0.154 | 0.0157 | 0.228 |  |
| CCN1CCC(C(=O)NO)(S(=O)(=O)c2ccc(Oc3ccc(Cl)cc3)cc2)CC1 [Example 250, 4-[4-(4-chloro-phenoxy)-benzenesulfonyl]1-ethyl-piperidine-4-carboxylic acid hydroxyamide] |  | 1.72 | 0.0016 | 0.0008 | 0.413 |  |
| CCCCN1CCC(C(=O)NO)(S(=O)(=O)c2ccc(Oc3ccc(Cl)cc3)cc2)CC1 [Example 251] |  | 1.07 | 0.0008 | 0.0009 | 0.301 |  |
| CCCCN1CCC(C(=O)NO)(S(=O)(=O)c2ccc(OCCC(C)C)cc2)CC1 [Example 256, 1 -Butyl-4-[4-(3-methyl-butoxy)-benzenesulfonyl]-piperidine-4-carboxylic acid hydroxyamide] |  | 10 | 0.0072 | 0.0029 |  | 43 |
| CCC(CC)COc1ccc(S(=O)(=O)C2(C(=O)NO)CCN(Cc3ccccc3)CC2)cc1 [Example 259, 1-Benzyl4-[4-(2-ethyl-butoxy)-benzenesulfonyl]-piperidine-4-carboxylic acid hydroxyamide] |  | 3.16 | 0.0143 | 0.0053 |  | 39 |
| CCCCOc1ccc(S(=O)(=O)C2(C(=O)NO)CCN(Cc3ccc(Cl)c(Cl)c3)CC2)cc1 [Example 263, 1-(3,4-Dichlorobenzyl)-4-(4-butoxy-benzenesulfonyl)-piperidine-4-carboxylic acid hydroxyamide] |  | 3.67 | 0.0203 | 0.0052 |  | 57.7 |
| CN1CCC(C(=O)NO)(S(=O)(=O)c2ccc(OCc3ccc(Cl)cc3)cc2)CC1 [Example 264, [4-(4-Chloro-benzyloxy)benzenesulfonyl]-1-methylpiperidine-4-carboxylic acid hydroxamide] |  | 4.29 | 0.0029 | 0.0031 | 0.182 |  |
| CCCCOc1ccc(S(=O)(=O)C2(C(=O)NO)CCN(Cc3cccc(Oc4ccccc4)c3)CC2)cc1 [Example 265, 4-(4-Butoxy-benzenesulfonyl)-1-(3-phenoxy-benzyl)-piperidine-4-carboxylic acid hydroxamide] |  | 1.94 | 0.0093 | 0.0078 | 1.04 |  |
| CCCCOc1ccc(S(=O)(=O)C2(C(=O)NO)CCN(Cc3ccc(C)cc3)CC2)cc1 [Example 267, 4-(4-Butoxy-benzenesulfonyl)-1-(4-methylbenzyl)-piperidine-4-carboxylic acid hydroxamide] |  | 3.62 | 0.0054 | 0.0023 | 0.508 |  |
| CCCCOc1ccc(S(=O)(=O)C2(C(=O)NO)CCN(Cc3ccc(C#N)cc3)CC2)cc1 [Example 268, 4-(4-Butoxy-benzenesulfonyl)-1-(4-cyano-benzyl)-piperidine-4-hydroxamide carboxylic acid hydroxamide] |  | 2.29 | 0.0028 | 0.0011 | 0.278 |  |
| CCCCOc1ccc(S(=O)(=O)C2(C(=O)NO)CCN(Cc3ccncc3)CC2)cc1 [Example 269, 4-(4-Butoxy-benzenesulfonyl)-1-pyridin-4-ylmethyl-piperidine-4-carboxylic acid hydroxamide] |  | 2.07 | 0.0022 | 0.0014 | 0.296 |  |
